“Also recorded” adds a separate entry of the source.
Columns and labels:
[1] = tested on: HIV-1 infected adult subjects; test: Study 202 biomarkers of inflammation; assay type: in vivo, human; conditions: both CVC treatment arms; EFV arm
Experimental: As an exploratory analysis, levels of inflammation biomarkers MCP-1, sCD14, high sensitivity C-reactive protein [hs-CRP], interleukin-6 [IL-6], D-dimer, and fibrinogen) were measured. Baseline values and changes from baseline at Week 24 and Week 48 of MCP-1, sCD14, hs-CRP, IL-6, D-dimer, and fibrinogen are summarized in Table 22.
The sCD14 samples were originally analyzed in 2 separate batches: Batch 1 included samples leading up to the Week 24 primary analysis and Batch 2 included Week 32 and Week 48 (end of study) samples. A repeat analysis of archived samples all analyzed in one batch was conducted for consistency in analysis across time points. To control for the effects of covariates, a linear mixed-model repeated-measures analysis was conducted on the changes from baseline in sCD14 (analysis dated September 2013).

[2] = tested on: STAM™ mouse model of Non-alcoholic Steatohepatitis; test: STAM mouse model of NASH, Part 1: anti-NASH/fibrosis effects at week 9; assay type: in vivo, mice; conditions: for Body weight / Liver-to-body weight ratio / Collagen Type 1 mRNA expression level (liver, quantitative RT-PCR) / MCP-1 mRNA expression level (liver, quantitative RT-PCR) / TIMP-1 mRNA expression level (liver, quantitative RT-PCR): mean ± SD; for Collagen Type 1 mRNA expression level (liver, quantitative RT-PCR) / MCP-1 mRNA expression level (liver, quantitative RT-PCR) / TIMP-1 mRNA expression level (liver, quantitative RT-PCR): Vehicle 1.00
Experimental: NASH was induced in male mice by a single injection of 200 μg streptozotocin 2 days after birth (causing impaired glucose control), followed by a high fat diet from 4 weeks of age. […] Animals were sacrificed at 9 weeks of age, and biochemical, gene expression, and histologic evaluations of the liver were conducted. […] Group 2-Cenicriviroc 20 mg/kg (CVC-low): […] [table]

HIV-1 infected subjects = test: Study 202 efficacy and tolerability; assay type: in vivo, human; conditions: CVC 100 mg and 200 mg for up to 48 weeks, 115 subjects
[3] = tested on: adults with CCR5 tropic HIV-1; test: Study 202 post-hoc APRI and FIB-4 fibrosis index scores; assay type: in vivo, human
Experimental: APRI and FIB-4 scores were calculated. Change in score category from baseline (BL) to Weeks 24 and 48 was assessed in patients with non-missing data. Correlations between changes from BL in APRI and FIB-4 scores, and MCP-1 (CCR2 ligand) and sCD14 (inflammatory biomarker) levels were evaluated.

[4] = Phase 1 CVC and pioglitazone co-administration PK and safety study; assay type: in vivo, healthy subjects; conditions: CVC 150 mg QD and PGZ 45 mg QD
Experimental: Plasma samples were collected prior to each dose and over 24 hours at the end of each treatment period. Cmax, Cmin, tmax, and AUC0-tau were determined using non-compartmental methods. Geometric means, GMRs and CIs were calculated.

[5] = CVC-high 100 mg/kg/day, week 9, listed as Cenicriviroc
[6] = CVC-high 100 mg/kg/day, week 9, n = 6
[7] = CVC-low 20 mg/kg/day, week 9, listed as Cenicriviroc
[8] = CVC-low 20 mg/kg/day, week 9, n = 6

Compound: CCCCOCCOc1ccc(-c2ccc3c(c2)/C=C(/C(=O)Nc2ccc([S@@+]([O-])Cc4cncn4CCC)cc2)CCCN3CC(C)C)cc1 [CVC, (S)-8-[4-(2-Butoxyethoxy)phenyl]-1-isobutyl-N-(4-{[(1-propyl-1H-imidazol-5-yl)methyl]sulfinyl}phenyl)-1,2,3,4-tetrahydro-1-benzazocine-5-carboxamide]
- sCD14 over 48 weeks of treatment (linear mixed-model analysis of repeat sCD14 analysis) [1]: decrease
- collagen type 1 mRNA in whole liver lysates, decrease (real-time RT-PCR) ([2]; CVC treatment 20 and 100 mg/kg/day, 9 weeks of age): 27-37%
- Body weight ([2]; CVC-high 100 mg/kg/day, week 9): 18.7 ± 0.9 g
- Liver-to-body weight ratio ([2]; CVC-high 100 mg/kg/day, week 9): 7.0±0.8%
- Collagen Type 1 mRNA expression level (liver, quantitative RT-PCR) ([2]; CVC-high 100 mg/kg/day, week 9): 0.73±0.04
- MCP-1 mRNA expression level (liver, quantitative RT-PCR) ([2]; CVC-high 100 mg/kg/day, week 9): 1.00±0.53
- TIMP-1 mRNA expression level (liver, quantitative RT-PCR) ([2]; CVC-high 100 mg/kg/day, week 9): 0.80±0.20
- Collagen Type 1 mRNA expression level (liver, quantitative RT-PCR) [2, 5]: 0.73 ± 0.04
- MCP-1 mRNA expression level (liver, quantitative RT-PCR) [2, 5]: 1.00 ± 0.53
- TIMP-1 mRNA expression level (liver, quantitative RT-PCR) [2, 5]: 0.80 ± 0.20
- Body weight [2, 5]: 18.7 ± 0.9 g
- Liver-to-body weight ratio [2, 5]: 7.0 ± 0.8%
- Hepatocyte ballooning score 0 (None), number of mice [2, 6]: 1
- Hepatocyte ballooning score 1 (Few balloon cells), number of mice [2, 6]: 2
- Hepatocyte ballooning score 2 (Many cells/prominent ballooning), number of mice [2, 6]: 3
- Lobular inflammation score 1 (<2 foci/200x), number of mice [2, 6]: 3
- Lobular inflammation score 2 (2-4 foci/200x), number of mice [2, 6]: 3
- Steatosis score 0 (<5%), number of mice [2, 6]: 1
- Steatosis score 1 (5-33%), number of mice [2, 6]: 5
- Body weight ([2]; CVC-low 20 mg/kg/day, week 9): 19.5 ± 2.0 g
- Liver-to-body weight ratio ([2]; CVC-low 20 mg/kg/day, week 9): 6.9±1.0%
- Collagen Type 1 mRNA expression level (liver, quantitative RT-PCR) ([2]; CVC-low 20 mg/kg/day, week 9): 0.63±0.10
- TIMP-1 mRNA expression level (liver, quantitative RT-PCR) ([2]; CVC-low 20 mg/kg/day, week 9): 0.75±0.32
- Collagen Type 1 mRNA expression level (liver, quantitative RT-PCR) [2, 7]: 0.63 ± 0.10
- TIMP-1 mRNA expression level (liver, quantitative RT-PCR) [2, 7]: 0.75 ± 0.32
- Body weight [2, 7]: 19.5 ± 2.0 g
- Liver-to-body weight ratio [2, 7]: 6.9 ± 1.0%
- Hepatocyte ballooning score 1 (Few balloon cells), number of mice [2, 8]: 3
- Hepatocyte ballooning score 2 (Many cells/prominent ballooning), number of mice [2, 8]: 3
- Lobular inflammation score 1 (<2 foci/200x), number of mice [2, 8]: 3
- Lobular inflammation score 2 (2-4 foci/200x), number of mice [2, 8]: 3
- Steatosis score 1 (5-33%), number of mice [2, 8]: 6
- general condition throughout the treatment period ([2]; CVC-low and CVC-high, until week 9): None of the animals in the present study showed deterioration in general condition
- tolerability in HIV-1 infected subjects (HIV-1 infected subjects): generally well tolerated; also recorded: effective and well tolerated
- subjects with APRI 0.5-1.5 ([3]; Baseline): 14%
- subjects with APRI <0.5 ([3]; Baseline): 84%
- subjects with APRI >1.5 ([3]; Baseline): 2%
- subjects with FIB-4 1.45-3.25 ([3]; Baseline): 17%
- subjects with FIB-4 <1.45 ([3]; Baseline): 82%
- subjects with FIB-4 >3.25 ([3]; Baseline): 1%
- subjects with APRI 0.5-1.5 ([3]; Week 24): 7%
- subjects with APRI <0.5 ([3]; Week 24): 93%
- subjects with APRI decreased 1 category from baseline ([3]; Week 24): 14%
- subjects with FIB-4 1.45-3.25 ([3]; Week 24): 7%
- subjects with FIB-4 <1.45 ([3]; Week 24): 93%
- subjects with FIB-4 decreased 1 category from baseline ([3]; Week 24): 13%
- subjects with APRI 0.5-1.5 ([3]; Week 48): 8%
- subjects with APRI <0.5 ([3]; Week 48): 91%
- subjects with APRI >1.5 ([3]; Week 48): 1%
- subjects with APRI decreased 1 category from baseline ([3]; Week 48): 10%
- subjects with FIB-4 1.45-3.25 ([3]; Week 48): 5%
- subjects with FIB-4 <1.45 ([3]; Week 48): 94%
- subjects with FIB-4 >3.25 ([3]; Week 48): 1%
- subjects with FIB-4 decreased 1 category from baseline ([3]; Week 48): 14%
- subjects with improvements in APRI and FIB-4 scores over time ([3]; pooled data for CVC 100 mg and 200 mg): ≥ 10%
- Cmin on co-administration [4]: remained unchanged
- steady-state Cmax and AUC0-tau on co-administration [4]: modest decrease
